Source: US6525001B1, “Substituted pyrimidine and pyridine herbicides” (Mid-American Commercialization Corporation, priority 1997, dated 2003)

Experiments:
Assay type in all cases: in vivo
[1] = tested on: giant foxtail (Setaria faberii); assay: Test C; design: key: 0 was no effect; 100 was complete control; details: PREEMERGENCE
[2] = tested on: field bindweed (Convolvulus arvensis); assay: Test C; design: key: 0 was no effect; 100 was complete control; details: PREEMERGENCE
[3] = tested on: lambsquarters (Chenopodium album); assay: Test C; design: key: 0 was no effect; 100 was complete control; details: PREEMERGENCE
[4] = tested on: soybean (Glycine max); assay: Test C; design: key: 0 was no effect; 100 was complete control; details: PREEMERGENCE
[5] = tested on: surinam grass (Brachiaria decumbens); assay: Test C; details: PREEMERGENCE
[6] = tested on: wild poinsettia (Euphorbia heterophylla); assay: Test C; details: PREEMERGENCE
[7] = tested on: redroot pigweed (Amaranthus retroflexus); assay: Test C; design: key: 0 was no effect; 100 was complete control; details: PREEMERGENCE
[8] = tested on: eastern black nightshade (Solanum ptycanthum); assay: Test C; details: PREEMERGENCE
[9] = tested on: fall panicum (Panicum dichotomiflorum); assay: Test C; design: key: 0 was no effect; 100 was complete control; details: PREEMERGENCE
[10] = tested on: bamyardgrass (Echinochloa crus-galli); assay: Test B flood test
Outline: (§1)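 Read-out is a visual response score from 0 (no effect) to 10 (complete control), assigned by comparison with untreated controls. Treatment was applied at the 2-leaf stage, and plants stayed in the greenhouse for twelve to sixteen days before scoring.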

[11] = tested on: smallflower flatsedge (Cyperus difformis); assay: Test B flood test
Outline: as §1

[12] = tested on: duck salad (Heteranthera limosa); assay: Test B flood test
Outline: as §1

[13] = tested on: rice (Oryza sativa); assay: Test B flood test
Outline: as §1

[14] = tested on: wild oat (Avena fatua); assay: Test B pre-/postemergence; design: key: 0 is no effect; 10 is complete control
Outline: (§2)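 Compounds in a surfactant-containing, non-phytotoxic solvent blend are applied to freshly planted seed (preemergence) and, concurrently, to seedlings of 2 to 18 cm at 1–4 leaves (postemergence). Plants stay in the greenhouse twelve to sixteen days and are then scored visually from 0 (no effect) to 10 (complete control).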

[15] = tested on: purple nutsedge (Cyperus rotundus); assay: Test B pre-/postemergence; design: key: 0 is no effect; 10 is complete control
Outline: as §2

[16] = tested on: common ragweed (Ambrosia elatior); assay: Test C; details: PREEMERGENCE
[17] = tested on: cotton (Gossypium hirsutum); assay: Test C; details: PREEMERGENCE
[18] = Rate 62 g/ha, Postemergence (flood test)
[19] = Rate 125 g/ha, Postemergence, flood test
[20] = Rate 250 g/ha, Postemergence (flood test species)
[21] = Rate 125 g/ha, Postemergence section (flood test species)
[22] = Rate 250 g/ha, Postemergence (so in the source)

## Cc1cnc(-n2ccc(C(F)(F)F)n2)nc1Cc1cccc(OC(F)(F)F)c1 [Compound 42]
[1]; Rate 35 g/ha
  Plant response rating, Giant foxtail: 70
[1]; Rate 70 g/ha
  Plant response rating, Giant foxtail: 80
[1]; Rate 140 g/ha
  Plant response rating, Giant foxtail: 100
[2]; Rate 35 g/ha
  Plant response rating, Field bindweed: 95
[2]; Rate 70 g/ha
  Plant response rating, Field bindweed: 100
[2]; Rate 140 g/ha
  Plant response rating, Field bindweed: 100
[3]; Rate 35 g/ha
  Plant response rating, Lambsquarters: 85
[3]; Rate 70 g/ha
  Plant response rating, Lambsquarters: 100
[3]; Rate 140 g/ha
  Plant response rating, Lambsquarters: 100
[4]; Rate 35 g/ha
  Plant response rating, Soybean: 0
[4]; Rate 70 g/ha
  Plant response rating, Soybean: 5
[4]; Rate 140 g/ha
  Plant response rating, Soybean: 35
[5]; Rate 35 g/ha
  Plant response rating, Surinam grass: 50
[5]; Rate 70 g/ha
  Plant response rating, Surinam grass: 55
[5]; Rate 140 g/ha
  Plant response rating, Surinam grass: 70
[6]; Rate 35 g/ha
  Plant response rating, Wild poinsettia: 25
[6]; Rate 70 g/ha
  Plant response rating, Wild poinsettia: 30
[6]; Rate 140 g/ha
  Plant response rating, Wild poinsettia: 85
[7]; Rate 35 g/ha
  Plant response rating, Redroot pigweed: 100
[7]; Rate 70 g/ha
  Plant response rating, Redroot pigweed: 100
[7]; Rate 140 g/ha
  Plant response rating, Redroot pigweed: 100
[8]; Rate 35 g/ha
  Plant response rating, E. blacknightsh: 90
[8]; Rate 70 g/ha
  Plant response rating, E. blacknightsh: 95
[8]; Rate 140 g/ha
  Plant response rating, E. blacknightsh: 95
[9]; Rate 35 g/ha
  Plant response rating, Fall panicum: 50
[9]; Rate 70 g/ha
  Plant response rating, Fall panicum: 85
[9]; Rate 140 g/ha
  Plant response rating, Fall panicum: 100
[10]; [18]
  Plant response rating, Barnyardgrass: 4
[10]; [19]
  Plant response rating, Barnyardgrass: 4
[10]; [20]
  Plant response rating, Barnyardgrass: 5
[11]; [18]
  Plant response rating, S. Flatsedge: 9
[11]; [21]
  S. Flatsedge plant response rating: 9
[11]; [20]
  Plant response rating, S. Flatsedge: 9
[12]; [18]
  Plant response rating, Ducksalad: 1
[12]; [19]
  Plant response rating, Ducksalad: 8
[12]; [20]
  Plant response rating, Ducksalad: 8
[13]; [18]
  Plant response rating, Rice: 4
[13]; [21]
  Rice plant response rating: 6
[13]; [20]
  Plant response rating, Rice: 6
[14]; Rate 62 g/ha, Postemergence
  Wild oats plant response rating: 6
[14]; Rate 62 g/ha, Preemergence
  Wild oats plant response rating: 4
[14]; Rate 125 g/ha, Postemergence
  Wild oats plant response rating: 6
[14]; Rate 125 g/ha, Preemergence
  Plant response rating, Wild oats: 8
[14]; Rate 250 g/ha, Postemergence
  Plant response rating, Wild oats: 6
[14]; [22]
  Plant response rating, Wild oats: 9
[15]; Rate 62 g/ha, Postemergence
  Plant response rating, Nutsedge: 0
[15]; Rate 62 g/ha, Preemergence
  Nutsedge plant response rating: 0
[15]; Rate 125 g/ha, Postemergence
  Nutsedge plant response rating: 0
[15]; Rate 250 g/ha, Postemergence
  Plant response rating, Nutsedge: 2
[15]; [22]
  Plant response rating, Nutsedge: 0
[16]; Rate 35 g/ha
  Plant response rating, Common ragweed: 20
[16]; Rate 70 g/ha
  Plant response rating, Common ragweed: 85
[16]; Rate 140 g/ha
  Plant response rating, Common ragweed: 85
[17]; Rate 35 g/ha
  Plant response rating, Cotton: 30
[17]; Rate 70 g/ha
  Plant response rating, Cotton: 60
[17]; Rate 140 g/ha
  Plant response rating, Cotton: 60
